# Biological target: T1, BCL6 (Homo sapiens, UniProt P41182)
# T1 construct: HiBiT-tag knocked into endogenous BCL6 locus using CRISPR; endogenous in cells; host or cells: DHL-4_BCL6_HiBiT cells (CRISPR knock-in)
# Test: BCL6_HiBiT degradation assay (2 h)
# Type: cell-based
# Conditions: DHL-4_BCL6_HiBiT cells
# Experimental: A DHL-4 cell line with HiBiT-tag knocked into endogenous BCL6 locus using CRISPR was generated. The DHL-4_BCL6_HiBiT cells were dispensed into 384-well plates (Corning no. 3570) that were pre-spotted with compounds. Compounds were dispensed by an acoustic dispenser (ATS acoustic transfer system from EDC Biosystems) into a 384-well plate in a 10-point dose response curve using 3-fold dilutions starting at 1-10 μM and going down to […]. 25 μL of media (RPMI-1640+10% heat inactivated FBS+1×Pen/Strep) containing 2500 of DHL-4 was dispensed per well. Assay plates were incubated at 37° C. with 5% CO2 for 2 hours. After incubation, 25 μL of the Nano-Glo HiBiT lytic detection working solution (Promega, catalogue no. N3040, Madison, WI) was added to each well and incubated at room temperature for 15-30 min, protected from light. After 30 min, luminescence was read on an Envision or PHERAstar luminescence reader. To determine the EC50 value (the half-maximum effective concentration) and the level of the gradation (Yconstant) of a BCL6 degrader, luminescent signal normalized by DMSO control (Y) and compound concentration (x) was fitted using a four-parameter dose-response model (Y=(A+((B−A)/1+((C/x)^D) in Dotmatics. Fitted value C is the degradation EC50 and the minimum value A is the Y constant.
# The degradation of BCL6 at 2 h in DHL-4 results are shown in Table 5, where EC50 is the half maximal effect and Ycon is the % remaining maximal effect.
row,YCon (% remaining maximal effect),Compound
1,(>60%),"CC1CN(c2ncc(Cl)c(Nc3ccc4c(c3)CC(=O)N4C)n2)CCCC1Nc1ccc2c(C3CCC(=O)NC3=O)nn(C)c2c1 (single isomer, unassigned) [Example 50, 3-(6-((1-(5-chloro-4-((1-methyl-2-oxoindolin-5-yl)amino)pyrimidin-2-yl)-3-methylazepan-4-yl)amino)-1-methyl-1H-indazol-3-yl)piperidine-2,6-dione]"
2,^^ (20-60%),"CC1CN(c2ncc(Cl)c(Nc3ccc4c(c3)CC(=O)N4C)n2)CCCC1Nc1ccc2c(C3CCC(=O)NC3=O)nn(C)c2c1 (single isomer, unassigned) [Example 51, 3-(6-((1-(5-chloro-4-((1-methyl-2-oxoindolin-5-yl)amino)pyrimidin-2-yl)-3-methylazepan-4-yl)amino)-1-methyl-1H-indazol-3-yl)piperidine-2,6-dione]"
3,^^ (20-60%),"CN1C(=O)Cc2cc(Nc3nc(N4CCC(Nc5ccc6c(C7CCC(=O)NC7=O)nn(C)c6c5)CC4)ncc3Cl)ccc21 (single isomer, unassigned) [Example 53]"
4,(>60%),"CN1C(=O)Cc2cc(Nc3nc(N4CCC(Nc5ccc6c(C7CCC(=O)NC7=O)nn(C)c6c5)CC4)ncc3Cl)ccc21 (single isomer, unassigned) [Example 54]"

# Same assay, conditions: DHL-4_BCL6_HiBiT cells, read-out: YCon (% remaining maximal effect)
row,Compound,Percent BCL6 remaining at maximal degradation (Ycon) [%]
1,"CN1C(=O)Cc2cc(Nc3nc(N4CC[C@H](Nc5ccc6c(C7CCC(=O)NC7=O)nn(C)c6c5)[C@H](C(F)(F)F)C4)ncc3Cl)ccc21 (relative stereo) [Example 147, rel-3-(6-(((3R,4S)-1-(5-chloro-4-((1-methyl-2-oxoindolin-5-yl)amino)pyrimidin-2-yl)-3-(trifluoromethyl)piperidin-4-yl)amino)-1-methyl-1H-indazol-3-yl)piperidine-2,6-dione]",> 60
2,"CC1CCN(c2ncc(Cl)c(Nc3ccc4c(c3)CC(=O)N4C)n2)CCC1Nc1ccc2c(C3CCC(=O)NC3=O)nn(C)c2c1 (single isomer, unassigned) [Example 48, 3-(6-((1-(5-chloro-4-((1-methyl-2-oxoindolin-5-yl)amino)pyrimidin-2-yl)-5-methylazepan-4-yl)amino)-1-methyl-1H-indazol-3-yl)piperidine-2,6-dione]",> 60
3,"COCCN1C(=O)Cc2cc(Nc3nc(N4CC[C@@H](Nc5ccc6c([C@H]7CCC(=O)NC7=O)nn(C)c6c5)[C@H](C)C4)ncc3Cl)ccc21 (single isomer, unassigned) [Example 76]",< 20
4,"COCCN1C(=O)Cc2cc(Nc3nc(N4CC[C@@H](Nc5ccc6c([C@@H]7CCC(=O)NC7=O)nn(C)c6c5)[C@H](C)C4)ncc3Cl)ccc21 (single isomer, unassigned) [Example 77]",< 20
5,"C[C@H]1C[C@H](Nc2ccc3c([C@H]4CCC(=O)NC4=O)nn(C)c3c2)CCN1c1ncc(Cl)c(Nc2ccc3c(c2)CC(=O)N3C)n1 (single isomer, unassigned) [Example 82]",< 20

# Second part, the compound after the results:
row,Percent BCL6 remaining at maximal degradation (Ycon) [%],Compound
1,< 20,"C[C@@H]1CN(c2ncc(Cl)c(Nc3ccc4c(c3)CC(=O)N4C)n2)CC[C@H]1Nc1ccc2c([C@H]3CCC(=O)NC3=O)nn(C)c2c1 (single isomer, unassigned) [Example 71]"
2,< 20,"C[C@@H]1CN(c2ncc(Cl)c(Nc3ccc4c(c3)CC(=O)N4C)n2)CC[C@H]1Nc1ccc2c([C@@H]3CCC(=O)NC3=O)nn(C)c2c1 (single isomer, unassigned) [Example 72]"
3,20 to 60,"C[C@@H]1CN(c2ncc(Cl)c(Nc3ccc4c(c3)CC(=O)N4C)n2)C[C@@H](C)N1c1ccc2c([C@H]3CCC(=O)NC3=O)nn(C)c2c1 (single isomer, unassigned) [Example 79]"
4,> 60,"C[C@@H]1CN(c2ncc(Cl)c(Nc3ccc4c(c3)CC(=O)N4C)n2)C[C@@H](C)N1c1ccc2c([C@@H]3CCC(=O)NC3=O)nn(C)c2c1 (single isomer, unassigned) [Example 80]"
